Source: the NIST ThermoML archive (doi:10.1021/je900093h)
Numbers after ± are expanded uncertainties.

Test: molar heat capacity at saturation pressure
Conditions: Crystal, Vacuum adiabatic calorimetry

Work on `CCCCCCCCCC(=O)OCC` [ethyl decanoate] yielded a molar heat capacity (5.07 K) of 0.5226 ± 0.014 J/K/mol, a molar heat capacity (5.31 K) of 0.6118 ± 0.015 J/K/mol and a molar heat capacity (5.56 K) of 0.7121 ± 0.016 J/K/mol. For the same compound, the molar heat capacity (5.81 K) was 0.825 ± 0.017 J/K/mol, the molar heat capacity (6.07 K) was 0.9558 ± 0.018 J/K/mol and the molar heat capacity (6.36 K) was 1.118 ± 0.02 J/K/mol. For the same compound, the molar heat capacity (6.69 K) was 1.318 ± 0.022 J/K/mol, the molar heat capacity (7.02 K) was 1.545 ± 0.025 J/K/mol and the molar heat capacity (7.35 K) was 1.796 ± 0.028 J/K/mol. For the same compound, the molar heat capacity (7.7 K) was 2.073 ± 0.031 J/K/mol, the molar heat capacity (8.04 K) was 2.376 ± 0.034 J/K/mol and the molar heat capacity (8.4 K) was 2.709 ± 0.037 J/K/mol. The molar heat capacity (8.76 K) was 3.071 ± 0.04 J/K/mol, the molar heat capacity (9.12 K) was 3.453 ± 0.044 J/K/mol and the molar heat capacity (9.48 K) was 3.859 ± 0.048 J/K/mol. For the same compound, the molar heat capacity (9.85 K) was 4.299 ± 0.052 J/K/mol, the molar heat capacity (10.32 K) was 4.888 ± 0.057 J/K/mol and the molar heat capacity (10.9 K) was 5.635 ± 0.064 J/K/mol. For the same compound, the molar heat capacity (11.48 K) was 6.424 ± 0.071 J/K/mol, the molar heat capacity (12.07 K) was 7.27 ± 0.079 J/K/mol and the molar heat capacity (12.66 K) was 8.157 ± 0.087 J/K/mol. For the same compound, the molar heat capacity (13.26 K) was 9.088 ± 0.095 J/K/mol, the molar heat capacity (13.87 K) was 10.03 ± 0.1 J/K/mol and the molar heat capacity (14.47 K) was 11.01 ± 0.11 J/K/mol. The molar heat capacity (15.09 K) was 12.05 ± 0.12 J/K/mol, the molar heat capacity (15.81 K) was 13.35 ± 0.13 J/K/mol and the molar heat capacity (16.64 K) was 14.88 ± 0.14 J/K/mol. It also gave a molar heat capacity (17.48 K) of 16.38 ± 0.16 J/K/mol, a molar heat capacity (18.32 K) of 17.92 ± 0.17 J/K/mol and a molar heat capacity (19.16 K) of 19.47 ± 0.18 J/K/mol. For the same compound, the molar heat capacity (20.01 K) was 21.05 ± 0.19 J/K/mol, the molar heat capacity (21.18 K) was 23.32 ± 0.21 J/K/mol and the molar heat capacity (22.7 K) was 26.32 ± 0.24 J/K/mol. The molar heat capacity (24.23 K) was 29.4 ± 0.26 J/K/mol, the molar heat capacity (25.75 K) was 32.51 ± 0.28 J/K/mol and the molar heat capacity (27.29 K) was 35.64 ± 0.31 J/K/mol. The molar heat capacity (28.39 K) was 37.87 ± 0.32 J/K/mol, the molar heat capacity (29.64 K) was 40.42 ± 0.34 J/K/mol and the molar heat capacity (31.35 K) was 43.96 ± 0.37 J/K/mol. The molar heat capacity (33.22 K) was 47.77 ± 0.4 J/K/mol, the molar heat capacity (35.1 K) was 51.55 ± 0.43 J/K/mol and the molar heat capacity (36.98 K) was 55.32 ± 0.46 J/K/mol. For the same compound, the molar heat capacity (38.87 K) was 59.03 ± 0.49 J/K/mol, the molar heat capacity (40.75 K) was 62.74 ± 0.52 J/K/mol and the molar heat capacity (42.73 K) was 66.71 ± 0.55 J/K/mol. It also gave a molar heat capacity (44.82 K) of 70.83 ± 0.58 J/K/mol, a molar heat capacity (46.9 K) of 74.94 ± 0.62 J/K/mol and a molar heat capacity (49 K) of 78.99 ± 0.65 J/K/mol. For the same compound, the molar heat capacity (51.09 K) was 82.94 ± 0.68 J/K/mol, the molar heat capacity (53.19 K) was 86.89 ± 0.71 J/K/mol and the molar heat capacity (55.3 K) was 90.74 ± 0.74 J/K/mol. It also gave a molar heat capacity (57.4 K) of 94.51 ± 0.77 J/K/mol, a molar heat capacity (59.52 K) of 98.2 ± 0.8 J/K/mol and a molar heat capacity (61.64 K) of 101.8 ± 0.8 J/K/mol. For the same compound, the molar heat capacity (63.76 K) was 105.3 ± 0.9 J/K/mol, the molar heat capacity (65.89 K) was 108.8 ± 0.9 J/K/mol and the molar heat capacity (68.01 K) was 112.1 ± 0.9 J/K/mol. It also gave a molar heat capacity (70.14 K) of 115.4 ± 0.9 J/K/mol, a molar heat capacity (72.38 K) of 118.9 ± 1 J/K/mol and a molar heat capacity (74.72 K) of 122.4 ± 1 J/K/mol. It also gave a molar heat capacity (77.07 K) of 125.9 ± 1 J/K/mol, a molar heat capacity (79.44 K) of 129.4 ± 1.1 J/K/mol and a molar heat capacity (80.12 K) of 130.3 ± 1.1 J/K/mol. For the same compound, the molar heat capacity (81.8 K) was 132.9 ± 1.1 J/K/mol, the molar heat capacity (81.98 K) was 133 ± 1.1 J/K/mol and the molar heat capacity (83.85 K) was 135.7 ± 1.1 J/K/mol. It also gave a molar heat capacity (84.15 K) of 136.2 ± 1.1 J/K/mol, a molar heat capacity (85.73 K) of 138.3 ± 1.1 J/K/mol and a molar heat capacity (87.62 K) of 141 ± 1.2 J/K/mol. The molar heat capacity (89.51 K) was 143.6 ± 1.2 J/K/mol, the molar heat capacity (91.41 K) was 146.2 ± 1.2 J/K/mol and the molar heat capacity (93.31 K) was 148.8 ± 1.2 J/K/mol. The molar heat capacity (95.22 K) was 151.3 ± 1.2 J/K/mol, the molar heat capacity (97.14 K) was 153.8 ± 1.3 J/K/mol and the molar heat capacity (99.06 K) was 156.2 ± 1.3 J/K/mol. For the same compound, the molar heat capacity (100.98 K) was 158.7 ± 1.3 J/K/mol, the molar heat capacity (102.91 K) was 161 ± 1.3 J/K/mol and the molar heat capacity (104.84 K) was 163.3 ± 1.3 J/K/mol. For the same compound, the molar heat capacity (106.77 K) was 165.7 ± 1.4 J/K/mol, the molar heat capacity (108.71 K) was 167.9 ± 1.4 J/K/mol and the molar heat capacity (110.66 K) was 170 ± 1.4 J/K/mol. The molar heat capacity (112.6 K) was 172.2 ± 1.4 J/K/mol, the molar heat capacity (114.55 K) was 174.3 ± 1.4 J/K/mol and the molar heat capacity (116.5 K) was 176.4 ± 1.4 J/K/mol. It also gave a molar heat capacity (118.46 K) of 178.5 ± 1.5 J/K/mol, a molar heat capacity (120.41 K) of 180.4 ± 1.5 J/K/mol and a molar heat capacity (122.37 K) of 182.4 ± 1.5 J/K/mol. The molar heat capacity (124.33 K) was 184.3 ± 1.5 J/K/mol, the molar heat capacity (126.29 K) was 186.2 ± 1.5 J/K/mol and the molar heat capacity (128.26 K) was 188 ± 1.5 J/K/mol. For the same compound, the molar heat capacity (130.23 K) was 189.8 ± 1.5 J/K/mol, the molar heat capacity (130.37 K) was 189.7 ± 1.5 J/K/mol and the molar heat capacity (132.19 K) was 191.6 ± 1.6 J/K/mol. The molar heat capacity (132.31 K) was 191.5 ± 1.6 J/K/mol, the molar heat capacity (134.17 K) was 193.3 ± 1.6 J/K/mol and the molar heat capacity (134.25 K) was 193.3 ± 1.6 J/K/mol. The molar heat capacity (136.14 K) was 195.1 ± 1.6 J/K/mol, the molar heat capacity (136.19 K) was 195 ± 1.6 J/K/mol and the molar heat capacity (138.12 K) was 196.8 ± 1.6 J/K/mol.
